Data on 18 compounds can be found in ChEMBL document CHEMBL6074624, “FDA-approved small molecule kinase inhibitors for cancer treatment (2001-2015): Medical indication, structural optimization, and binding mode Part I” (Bioorg Med Chem, 2024).

Series [1] relates to HT-29. Briefly: Antiproliferative activity against human HT-29 cells assessed as reduction in cell viability after 72 hrs by MTS assay. The conditions noted are these: HT-29, 72 h. The series is classed as functional, cell-based. Background: Formazan colour is commonly taken as a measure of viable cells.
Another series relates to ACHN. Briefly: Antiproliferative activity against human ACHN cells assessed as reduction in cell viability measured after 48 hrs by SRB assay. The series is classed as functional, cell-based. Background: Sulforhodamine B stains cellular protein and so reports cell mass.
Series [2] deals with Proto-oncogene tyrosine-protein kinase Src (Homo sapiens, UniProt P12931).
Proto-oncogene tyrosine-protein kinase Src, sequence (P12931 2-536 limits assumed): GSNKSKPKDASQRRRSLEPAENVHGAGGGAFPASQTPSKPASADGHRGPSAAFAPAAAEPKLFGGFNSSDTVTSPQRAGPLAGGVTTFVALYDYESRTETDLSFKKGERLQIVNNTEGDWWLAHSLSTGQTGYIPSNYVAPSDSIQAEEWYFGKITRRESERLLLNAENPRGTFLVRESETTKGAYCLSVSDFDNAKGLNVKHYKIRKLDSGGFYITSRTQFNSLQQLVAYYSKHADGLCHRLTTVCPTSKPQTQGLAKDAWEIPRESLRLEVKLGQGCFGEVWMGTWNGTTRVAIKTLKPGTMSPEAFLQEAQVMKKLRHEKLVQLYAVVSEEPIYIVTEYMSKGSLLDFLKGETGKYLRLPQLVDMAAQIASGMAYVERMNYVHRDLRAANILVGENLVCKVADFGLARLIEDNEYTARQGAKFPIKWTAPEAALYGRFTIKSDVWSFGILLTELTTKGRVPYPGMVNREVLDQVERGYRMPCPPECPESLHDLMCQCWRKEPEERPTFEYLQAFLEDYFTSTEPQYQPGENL
The test system of the next series is K562. Nature of the series: Antiproliferative activity against human K562 cells assessed as reduction in cell growth. The series is classed as functional, cell-based.
The target of series [3] is Hepatocyte growth factor receptor (Homo sapiens, UniProt P08581). Nature of the series: Inhibition of c-Met (unknown origin).
Hepatocyte growth factor receptor, sequence (P08581 whole entry): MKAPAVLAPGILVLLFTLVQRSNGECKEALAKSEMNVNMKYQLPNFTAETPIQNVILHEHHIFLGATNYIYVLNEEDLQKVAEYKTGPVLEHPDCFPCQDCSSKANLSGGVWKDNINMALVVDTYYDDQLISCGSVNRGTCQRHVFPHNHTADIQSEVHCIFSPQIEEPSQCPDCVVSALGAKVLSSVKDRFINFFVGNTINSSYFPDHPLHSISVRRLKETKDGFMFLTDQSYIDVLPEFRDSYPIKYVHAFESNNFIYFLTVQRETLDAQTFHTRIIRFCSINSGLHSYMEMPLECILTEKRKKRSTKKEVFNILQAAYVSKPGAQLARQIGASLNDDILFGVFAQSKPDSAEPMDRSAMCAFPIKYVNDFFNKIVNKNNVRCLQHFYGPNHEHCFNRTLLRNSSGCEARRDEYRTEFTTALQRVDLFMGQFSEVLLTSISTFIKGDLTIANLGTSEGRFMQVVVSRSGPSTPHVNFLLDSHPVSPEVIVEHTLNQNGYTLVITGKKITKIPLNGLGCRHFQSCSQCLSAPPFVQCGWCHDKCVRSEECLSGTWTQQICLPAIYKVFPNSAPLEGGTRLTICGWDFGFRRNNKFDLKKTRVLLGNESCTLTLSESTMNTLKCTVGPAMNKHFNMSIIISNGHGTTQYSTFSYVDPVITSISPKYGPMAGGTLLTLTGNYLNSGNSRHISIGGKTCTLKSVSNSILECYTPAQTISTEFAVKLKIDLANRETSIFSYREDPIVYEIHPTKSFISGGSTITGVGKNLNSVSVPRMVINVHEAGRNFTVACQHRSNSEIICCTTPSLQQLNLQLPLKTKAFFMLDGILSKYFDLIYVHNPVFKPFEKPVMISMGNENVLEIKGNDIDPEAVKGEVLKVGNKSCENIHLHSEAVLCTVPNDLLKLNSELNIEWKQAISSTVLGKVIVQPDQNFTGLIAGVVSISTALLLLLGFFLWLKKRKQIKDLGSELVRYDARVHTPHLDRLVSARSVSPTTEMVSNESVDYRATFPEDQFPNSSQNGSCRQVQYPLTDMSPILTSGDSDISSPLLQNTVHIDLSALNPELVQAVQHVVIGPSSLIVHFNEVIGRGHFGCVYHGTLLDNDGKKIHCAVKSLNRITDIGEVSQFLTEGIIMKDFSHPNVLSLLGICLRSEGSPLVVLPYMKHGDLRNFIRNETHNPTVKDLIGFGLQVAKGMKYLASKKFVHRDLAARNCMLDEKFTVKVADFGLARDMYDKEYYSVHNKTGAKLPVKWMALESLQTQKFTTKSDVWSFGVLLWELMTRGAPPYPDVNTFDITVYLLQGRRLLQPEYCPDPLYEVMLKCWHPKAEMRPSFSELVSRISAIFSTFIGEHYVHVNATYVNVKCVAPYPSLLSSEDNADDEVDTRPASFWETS
For another series, the system named is Calu-3. Briefly: Growth inhibition of human Calu-3 cells. The series is classed as functional.
Series [4] deals with PC-9. Nature of the series: Growth inhibition of human PC-9 cells. The series is classed as functional.
The test system of series [5] is PC-9. Briefly: Antiproliferative activity against human PC-9 cells harboring EGFR L858R mutant assessed as reduction in cell viability measured after 72 hrs by SRB assay. The series is classed as functional, cell-based. Particulars: PC-9, 72 h.
Another series has as its system NCI-H1975. Briefly: Growth inhibition of human NCI-H1975 cells. The series is classed as functional.
Series [6] has as its target Voltage-gated inwardly rectifying potassium channel KCNH2 (Homo sapiens, UniProt Q12809). Briefly: Inhibition of hERG. The series is classed as toxicity. In general terms: hERG is a cardiac potassium channel; its block is linked to QT prolongation.
Series [7] is described as follows: Anticancer activity against human NCI-H1975 cells harboring EGFR L858R/T790M mutant assessed as reduction in cell viability measured after 72 hrs by MTT assay. The series is classed as functional, cell-based. The conditions noted are these: NCI-H1975, 72 h.
Series [8] can be described thus: Aqueous solubility of compound at pH 7.4 by LC-MS/MS analysis. The series is classed as physicochemical. Particulars: buffer.
The nature of series [9]: Cytotoxicity against HUVEC cells assessed as reduction in cell viability after 72 hrs by CellTiter-Glo assay. The series is classed as toxicity, cell-based. The conditions noted are these: human.
The nature of series [10]: AUC (0 to infinity) in mouse at 50 mg/kg, po. The series is classed as ADME, organism-based. The conditions noted are these: in vivo.
The target in series [11] is Fibroblast growth factor receptor 1 (Homo sapiens, UniProt P11362). Nature of the series: Inhibition of FGFR1 (unknown origin).
A short description of series [12]: Inhibition of Bcr-Abl T315Ialpha mutant (unknown origin). The arrangement: species or system Homo sapiens.
Series [13] concerns the target T1, Vascular endothelial growth factor receptor 2 (Homo sapiens, UniProt P35968). Nature of the series: Inhibition of VEGFR-2 (unknown origin) expressed in NIH3T3 cells assessed as reduction in VEGFA induced protein phosphorylation. The series is classed as cell-based.
A short description of series [14]: Inhibition of PDGFR (unknown origin) in NIH3T3 cells. The series is classed as cell-based, Homo sapiens.
For series [15], the system named is HT-29. Nature of the series: Antitumor activity against human HT-29 cells xenografted in athymic nude mouse assessed as tumor growth inhibition at 50 mg/kg, po administered once daily for 21 days relative to control. The series is classed as functional. Particulars: HT-29, 504 h, time 21 day, read-out: TGI.
Series [16] has as its system HT-29. Nature of the series: Antitumor activity against human HT-29 cells xenografted in athymic nude mouse assessed as tumor growth inhibition at 25 mg/kg, ip administered once daily for 21 days relative to control. Particulars: HT-29, 504 h, time 21 day, read-out: TGI. The series is classed as functional.
The target of series [17] is T1, Vascular endothelial growth factor receptor 2. Nature of the series: Binding affinity to VEGFR-2 (unknown origin) assessed as inhibition constant.
Series [18] can be described thus: Volume of distribution at steady state in Sprague-Dawley rat at 10 mg/kg, iv by LC-MS/MS analysis. The series is classed as ADME, organism-based. Particulars: in vivo, read-out: Vdss.
The nature of series [19]: Oral bioavailability in Sprague-Dawley rat at 10 mg/kg by LC-MS analysis. The series is classed as ADME, organism-based. The conditions noted are these: in vivo.
Series [20] in a line: Clearance in Sprague-Dawley rat at 10 mg/kg, iv by LC-MS/MS analysis. The series is classed as ADME, organism-based. Particulars: in vivo.
In series [21] the target is Vascular endothelial growth factor receptor 1 (Homo sapiens, UniProt P17948). Nature of the series: Inhibition of VEGFR-1 (unknown origin).
Vascular endothelial growth factor receptor 1, sequence (P17948 whole entry): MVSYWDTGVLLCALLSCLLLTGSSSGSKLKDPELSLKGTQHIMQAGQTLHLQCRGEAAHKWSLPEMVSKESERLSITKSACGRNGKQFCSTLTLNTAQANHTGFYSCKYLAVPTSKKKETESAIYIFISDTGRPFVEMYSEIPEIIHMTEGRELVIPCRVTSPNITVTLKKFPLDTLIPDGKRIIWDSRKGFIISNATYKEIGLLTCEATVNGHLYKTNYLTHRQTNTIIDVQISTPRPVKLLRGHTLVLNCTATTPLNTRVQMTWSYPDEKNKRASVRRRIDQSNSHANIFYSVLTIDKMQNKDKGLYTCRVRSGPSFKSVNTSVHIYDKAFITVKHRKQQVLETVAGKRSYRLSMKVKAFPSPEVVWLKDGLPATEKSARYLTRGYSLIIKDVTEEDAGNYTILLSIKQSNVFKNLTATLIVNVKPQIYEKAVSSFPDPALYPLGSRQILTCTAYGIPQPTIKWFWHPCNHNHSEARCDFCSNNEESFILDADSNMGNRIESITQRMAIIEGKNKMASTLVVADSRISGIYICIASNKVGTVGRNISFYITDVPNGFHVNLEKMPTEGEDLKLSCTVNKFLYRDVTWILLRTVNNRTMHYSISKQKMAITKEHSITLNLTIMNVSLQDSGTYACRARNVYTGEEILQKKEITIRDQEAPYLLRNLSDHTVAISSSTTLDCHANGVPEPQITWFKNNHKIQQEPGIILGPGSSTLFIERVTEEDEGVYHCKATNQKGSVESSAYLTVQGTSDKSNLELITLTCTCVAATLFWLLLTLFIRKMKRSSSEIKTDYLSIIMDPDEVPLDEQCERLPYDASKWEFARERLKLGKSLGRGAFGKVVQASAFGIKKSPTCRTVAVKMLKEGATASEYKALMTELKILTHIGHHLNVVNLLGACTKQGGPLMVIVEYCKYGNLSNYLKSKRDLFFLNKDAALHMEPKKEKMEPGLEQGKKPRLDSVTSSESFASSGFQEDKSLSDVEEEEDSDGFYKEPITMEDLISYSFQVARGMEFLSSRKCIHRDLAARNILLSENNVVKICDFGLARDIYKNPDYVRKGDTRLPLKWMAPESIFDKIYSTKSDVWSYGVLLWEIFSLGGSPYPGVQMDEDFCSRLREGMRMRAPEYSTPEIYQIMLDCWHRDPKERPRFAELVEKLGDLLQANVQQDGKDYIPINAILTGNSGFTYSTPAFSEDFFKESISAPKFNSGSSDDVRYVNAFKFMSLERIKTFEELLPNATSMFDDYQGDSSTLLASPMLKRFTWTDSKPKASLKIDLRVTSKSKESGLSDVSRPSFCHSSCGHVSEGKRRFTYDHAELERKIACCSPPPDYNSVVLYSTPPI
Series [22] concerns Calu-6. Nature of the series: Antitumor activity against human Calu-6 cells xenografted in athymic nude mouse assessed as tumor growth inhibition at 12.5 mg/kg, po administered once daily for 21 days relative to control. The series is classed as functional. Particulars: Calu-6, 504 h, time 21 day, read-out: TGI.
Series [23] relates to Calu-6. Briefly: Antitumor activity against human Calu-6 cells xenografted in athymic nude mouse assessed as tumor growth inhibition at 50 mg/kg, po administered once daily for 21 days relative to control. The series is classed as functional. The conditions noted are these: Calu-6, 504 h, time 21 day, read-out: TGI.
Series [24] in a line: Oral bioavailability in rat at 5 mg/kg measured for 24 hrs by LC-MS/MS analysis. The series is classed as ADME, organism-based. Particulars: in vivo.
The test system of series [25] is Calu-6. Nature of the series: Antitumor activity against human Calu-6 cells xenografted in athymic nude mouse assessed as tumor growth inhibition at 100 mg/kg, po administered once daily for 21 days relative to control. The series is classed as functional. The arrangement: scale not given: the % may be the effect or the level left. The conditions noted are these: time 21 day.

A short description of series [26]: Half life in rat at 5 mg/kg, po. The series is classed as ADME, organism-based. Particulars: in vivo.
Series [27] in a line: Solubility in PBS at pH 7.4 incubated for 24 hrs by HPLC analysis. The series is classed as physicochemical.
Series [28] relates to Calu-6. Nature of the series: Antitumor activity against human Calu-6 cells xenografted in athymic nude mouse assessed as tumor growth inhibition at 25 mg/kg, po administered once daily for 21 days relative to control. The series is classed as functional. The conditions noted are these: Calu-6, 504 h, time 21 day, read-out: TGI.
Series [29] can be described thus: Oral bioavailability in Sprague-Dawley rat at 5 mg/kg. The series is classed as ADME, organism-based. The conditions noted are these: in vivo.
Series [30] is described as follows: Half life in Sprague-Dawley rat at 5 mg/kg, iv by LC-MS analysis. The series is classed as ADME, organism-based. The conditions noted are these: in vivo.
Series [31] in a line: Oral bioavailability in dog at 5 mg/kg. The series is classed as ADME, organism-based, Canis lupus familiaris. Particulars: in vivo.
For series [32], the target named is T1, Vascular endothelial growth factor receptor 2. Nature of the series: Inhibition of VEGFR2 (unknown origin) phosphorylation in HUVEC cells. The series is classed as cell-based.
Series [33] in a line: Half life in dog at 5 mg/kg, iv. The series is classed as ADME, organism-based, Canis lupus familiaris. The conditions noted are these: in vivo.

Converted amounts (≈) assume the structure as drawn. Where only a bound is given, the exact number is not on record here.

T1 sequence (P35968 whole entry): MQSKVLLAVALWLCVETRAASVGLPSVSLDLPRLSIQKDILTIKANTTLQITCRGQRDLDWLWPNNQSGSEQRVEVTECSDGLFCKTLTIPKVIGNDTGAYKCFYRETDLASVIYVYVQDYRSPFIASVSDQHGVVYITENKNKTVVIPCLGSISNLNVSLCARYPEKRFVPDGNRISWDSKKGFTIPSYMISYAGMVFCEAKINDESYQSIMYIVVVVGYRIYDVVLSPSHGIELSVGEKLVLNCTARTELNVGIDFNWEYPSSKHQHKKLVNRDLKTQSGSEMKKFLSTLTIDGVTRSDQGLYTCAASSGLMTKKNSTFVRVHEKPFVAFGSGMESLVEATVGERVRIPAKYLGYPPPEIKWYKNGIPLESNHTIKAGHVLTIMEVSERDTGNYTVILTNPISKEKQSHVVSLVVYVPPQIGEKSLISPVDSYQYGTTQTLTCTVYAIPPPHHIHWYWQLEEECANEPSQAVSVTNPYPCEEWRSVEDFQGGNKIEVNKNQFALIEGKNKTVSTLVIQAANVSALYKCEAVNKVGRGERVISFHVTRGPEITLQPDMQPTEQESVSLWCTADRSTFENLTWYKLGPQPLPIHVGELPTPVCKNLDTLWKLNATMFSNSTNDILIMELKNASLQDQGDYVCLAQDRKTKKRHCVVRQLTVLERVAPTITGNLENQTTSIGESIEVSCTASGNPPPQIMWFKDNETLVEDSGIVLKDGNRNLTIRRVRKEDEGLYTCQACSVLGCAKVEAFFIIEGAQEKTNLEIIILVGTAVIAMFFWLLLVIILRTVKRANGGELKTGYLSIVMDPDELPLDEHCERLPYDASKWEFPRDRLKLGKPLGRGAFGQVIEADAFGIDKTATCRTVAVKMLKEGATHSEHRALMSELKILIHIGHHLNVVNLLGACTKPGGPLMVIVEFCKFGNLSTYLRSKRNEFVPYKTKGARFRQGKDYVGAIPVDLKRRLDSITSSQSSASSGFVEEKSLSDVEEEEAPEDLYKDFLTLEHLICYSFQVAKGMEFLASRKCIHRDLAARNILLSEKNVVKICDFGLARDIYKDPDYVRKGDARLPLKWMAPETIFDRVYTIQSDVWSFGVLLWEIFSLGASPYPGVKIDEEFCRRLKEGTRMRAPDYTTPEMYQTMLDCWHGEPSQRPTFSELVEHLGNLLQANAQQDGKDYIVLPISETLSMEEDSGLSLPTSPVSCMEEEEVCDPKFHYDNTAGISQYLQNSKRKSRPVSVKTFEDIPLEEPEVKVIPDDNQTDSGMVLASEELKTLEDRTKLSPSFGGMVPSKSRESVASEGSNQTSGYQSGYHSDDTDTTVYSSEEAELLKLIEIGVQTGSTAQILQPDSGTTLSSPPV

Usually IC50 stands for the concentration that gives 50% inhibition. For `Cn1c(=O)cc(Nc2ccc(Cl)cc2)c2c(=O)n(-c3ccccc3)c(=O)n(-c3ccccc3)c21`, the IC50 in the series with HT-29 [1] came out at 990 nM; in the series on ACHN, 4800 nM.
On the same counts, the results for `Cn1c(=O)cc(Nc2ccc(I)cc2F)c2c(=O)n(C3CC3)c(=O)n(-c3ccccc3)c21` are 1.5 nM and 13 nM.
In the case of `Cc1ccc(NC(=O)c2cc(C(C)(C)C)on2)cc1/C=C/n1cnc2c(NC3CC3)ncnc21`, in series [2], the IC50 is 15500 nM.
Take `COc1cc2nccc(Nc3ccc(NC(=S)NC(=O)Cc4ccccc4)cc3F)c2cc1OC`: the IC50 in the series on K562 was 20 nM; in [3], 121 nM.
One may read the GI50 as the concentration at which growth is held to half of that of the control. A word on the solubility: it is how much of the substance goes into solution per volume. Turning to `C=CC(=O)Nc1cc(Nc2ncc(Cl)c(-c3cnn4ccccc34)n2)c(OC)cc1C1CC(N(C)C)C1` (centres undefined), the results for the GI50 in the series on Calu-3, in the series on PC-9 [4] and with NCI-H1975 were 846 nM, 19 nM and 17 nM, respectively. The IC50 is 21 nM with PC-9 [5], 4000 nM in series [6] and 4 nM in series [7]. The compound also came in with a solubility in series [8] of 43 µM (≈ 22.3 µg/mL).
Compound `Cc1ccc(NC(=O)c2cc(C(F)(F)F)ccn2)cc1C#Cn1cnc2c(NC3CC3)ncnc21` came in with an IC50 in series [2] of 524 nM.
On to `Cn1c(Nc2ccccc2)c2c(=O)n(C3CC3)c(=O)n(-c3ccc(Br)cc3)c2cc1=O`, for which the half-maximal inhibitory concentration (IC50) in the series on HT-29 [1] was greater than 1000 nM; in the series on ACHN it was less than 3000 nM.
The term AUC(0-inf) denotes total exposure, with the tail of the curve extrapolated. With `COc1cc(-c2ccc3[nH]nc(/C=C/c4ccc(OC)c(OC)c4)c3c2)ccc1O`, in series [9], the IC50 at 72 h came out at 18 nM. Besides, the AUC(0-inf) in [10] stood at 300 ng·h/mL.
For `COc1cc(/C=C/c2n[nH]c3ccccc23)ccc1O`, 1900 nM corresponded to half-maximal inhibition in series [11] (IC50).
Consider `Cc1ccc(NC(=O)c2cc(C(F)(F)F)ccn2)cc1/C=C/n1cnc2c(NC3CC3)ncnc21`, for which the IC50 in series [2] is 14100 nM.
`Cc1ccc(NC(=O)c2cc(C(C)(C)C)on2)cc1C#Cn1cnc2c(NC3CC3)ncnc21` came in with an IC50 in series [12] of 359 nM.
As to `Cc1c[nH]c(/C=C2\C(=O)Nc3ccccc32)c1CCC(=O)O`, the IC50 in series [13] came out at 400 nM; in [14], 60900 nM.
For `COc1cc(Nc2c(C#N)cnc3cc(OCCCN4CCN(C)CC4)c(OC)cc23)c(Cl)cc1Cl` [BOSUTINIB], the inhibition in vivo at 50 mg/kg with HT-29 [15] worked out at 35%. For the same compound, in the series on HT-29 [16], the inhibition in vivo at 25 mg/kg was determined as 44%.
One may read the Ki as the dissociation constant of the complex between target and ligand, obtained from inhibition or displacement. With `COc1cc(/C=C/c2cc(/C=C/c3ccc(O)c(OC)c3)[nH]n2)ccc1O` [CURCUMIN PYRAZOLE], the Ki in [17] is 5100 nM.
A word on the bioavailability: it is dose-corrected exposure relative to a reference, in per cent. The clearance is a measure of how efficiently the substance is removed, as volume per time. Consider `Cc1nc(Nc2ncc(C(=O)Nc3c(C)cccc3Cl)s2)cc(N2CCN(CCO)CC2)n1` [DASATINIB ANHYDROUS], for which the Vd in [18] came to 6.3 L/kg. The bioavailability in series [19] turned out to be 27%. The clearance in [20] was 26.4 mL/min/kg.
The compound `COc1cc2nccc(Oc3ccc(NC(=O)NC4CC4)c(Cl)c3)c2cc1C(N)=O` [LENVATINIB] returned an IC50 in [21] of 3.4 nM.
The half-life is the time in which the quantity being followed falls by half. With `COc1cc2/c(=N/c3ccc(Br)cc3F)nc[nH]c2cc1OCC1CCN(C)CC1` [VANDETANIB], the inhibition in vivo at 12.5 mg/kg with Calu-6 [22] was determined as 36%. For the same compound, the inhibition in vivo at 50 mg/kg in the series on Calu-6 [23] was 67%. This compound also had a bioavailability in [24] greater than 50%. Also, the Activity with Calu-6 [25] turned out to be 79%. Also, in series [26], the half-life is 15 h. This compound had a solubility at 24 h in series [27] of 330 µM (≈ 157 µg/mL). Also, the inhibition in vivo at 25 mg/kg with Calu-6 [28] worked out at 51%.
Regarding `COc1cc2c(Nc3ccc(Br)cc3F)ncnc2cc1OCCn1ccnn1` [ZD-4190 FREE BASE], in the series on Calu-6 [25], the Activity was found to be 75%. Also, the figures for the bioavailability in series [29] and in [31] were greater than 80% and less than 5%, respectively. Further, the half-life in series [30] is 1.3 h; in [33], 1.1 h. In series [32], this compound gave a concentration for half-maximal inhibition (IC50) of 50 nM.
